# From patent US10266497B2 (ABIDE THERAPEUTICS, INC., priority 2017, dated 2019)
# Columns and labels:
# MAGL [1] = biological target: T1, MAGL (Homo sapiens, UniProt Q99685); test: In vitro competitive activity-based protein profiling, MAGL, human; settings: for inhibition at 1 µM: read-out: MAGL % inh. 1 μM (human)
# T1 sequence (Q99685 1-303): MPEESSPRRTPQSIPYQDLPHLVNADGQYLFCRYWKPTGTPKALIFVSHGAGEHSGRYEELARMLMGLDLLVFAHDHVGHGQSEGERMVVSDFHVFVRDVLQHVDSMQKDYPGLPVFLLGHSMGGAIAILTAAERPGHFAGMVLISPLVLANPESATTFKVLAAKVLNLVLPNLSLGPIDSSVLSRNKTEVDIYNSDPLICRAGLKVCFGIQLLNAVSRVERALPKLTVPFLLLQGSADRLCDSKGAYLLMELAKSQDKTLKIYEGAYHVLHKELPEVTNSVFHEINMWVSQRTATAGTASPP
# Procedure: Biological Evaluation In Vitro Competitive Activity-Based Protein Profiling.
# Proteomes (mouse brain membrane fraction for mouse assays; human prefrontal cortex membrane fractions for human assays) (50 mL, 1.0 mg/mL total protein concentration) were preincubated with varying concentrations of inhibitors at 37° C. After 30 min, FP-Rh (1.0 mL, 50 mM in DMSO) was added and the mixture was incubated for another 30 min at 37° C. Reactions were quenched with SDS loading buffer (15 μL—4λ) and run on SDS-PAGE.
# MAGL [2] = biological target: T2, MAGL (Mus musculus, UniProt O35678); test: In vitro competitive activity-based protein profiling, MAGL, mouse; settings: read-out: MAGL % inh. 1 μM (mouse)
# T2 sequence (O35678 1-303): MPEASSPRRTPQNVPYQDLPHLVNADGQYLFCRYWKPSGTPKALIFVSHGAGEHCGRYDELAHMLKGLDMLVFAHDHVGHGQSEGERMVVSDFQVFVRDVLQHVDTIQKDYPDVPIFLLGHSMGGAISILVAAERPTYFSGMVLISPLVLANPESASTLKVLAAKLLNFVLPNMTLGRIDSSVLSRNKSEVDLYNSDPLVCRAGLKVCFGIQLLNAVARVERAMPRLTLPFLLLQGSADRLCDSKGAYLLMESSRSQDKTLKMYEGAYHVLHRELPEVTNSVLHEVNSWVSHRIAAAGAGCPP
inhibition at 1 µM (MAGL [1]) [%],inhibition at 1 µM (MAGL [2]) [%],IC50 (MAGL [1]) [µM],SMILES
> 75,> 75,–,"O=C(O)c1ccn(C(=O)N2C[C@H]3C[C@H](Oc4cccc(C5CC5)c4)C[C@H]3C2)n1 [Example 219, 1-(trans-5-(3-cyclopropylphenoxy)octahydrocyclopenta [c]pyrrole-2-carbonyl)-1H-pyrazole-3-carboxylic acid]"
> 75,> 75,–,"CC(C)c1ccccc1O[C@H]1C[C@@H]2CN(C(=O)n3ccc(C(=O)O)n3)C[C@@H]2C1 [Example 221, 1-(trans-5-(2-isopropylphenoxy)octahydrocyclopenta [c]pyrrole-2-carbonyl)-1H-pyrazole-3-carboxylic acid]"
> 75,> 75,–,"O=C(O)c1ccn(C(=O)N2C[C@H]3C[C@H](Oc4cc(F)cc(Cl)c4)C[C@H]3C2)n1 [Example 222, 1-(trans-5-(3-chloro-5-fluorophenoxy)octa-hydrocyclopenta[c]pyrrole-2-carbonyl)-1H-pyrazole-3-carboxylic acid]"
> 75,0 to 25,–,"Cc1ccc(C)c(CN2CCC3(CCN(C(=O)n4ccc(C(=O)O)n4)CC3)C2)c1 [Example 223, 1-(2-(2,5-dimethylbenzyl)-2,8-diazaspiro[4.5]decane-8-carbonyl)-1H-pyrazole-3-carboxylic acid]"
> 75,> 75,–,"O=C(O)c1ccn(C(=O)N2CCC(OCc3cc(Cl)cc(Cl)c3)CC2)n1 [Example 224, 1-(4-((3,5-dichlorobenzyl)oxy)piperidine-1-carbonyl)-1H-pyrazole-3-carboxylic acid]"
> 75,> 75,–,"O=C(O)c1ccn(C(=O)N2CCC(OCc3cccc(N4CCCC4)c3)CC2)n1 [Example 226, 1-(4-((3-(pyrrolidin-1-yl)benzyl)oxy)piper-idine-1-carbonyl)-1H-pyrazole-3-carboxylic acid]"
> 75,25 to 50,–,"O=C(O)c1ccn(C(=O)N2CCC3(CCN(Cc4cccc(Cl)c4)C3)CC2)n1 [Example 227, 1-(2-(3-chlorobenzyl)-2,8-diazaspiro[4.5]decane-8-carbonyl)-1H-pyrazole-3-carboxylic acid]"
25 to 50,0 to 25,–,"O=C(O)c1ccn(C(=O)N2CCN(Cc3cccc(Oc4cccnn4)c3)CC2)n1 [Example 229, 1-(4-(3-(pyridazin-3-yloxy)benzyl)piper-azine-1-carbonyl)-1H-pyrazole-3-carboxylic acid]"
> 75,> 75,–,"O=C(O)c1ccn(C(=O)N2C[C@H]3C[C@H](Oc4cccc(C(F)(F)F)c4)C[C@H]3C2)n1 [Example 231, 1-(trans-5-(3-(trifluoromethyl)phenoxy)octahydro-cyclopenta[c]pyrrole-2-carbonyl)-1H-pyrazole-3-carboxylic acid]"
> 75,> 75,–,"O=C(O)c1ccn(C(=O)N2C[C@H]3C[C@H](Oc4cccc(C5CCCC5)c4)C[C@H]3C2)n1 [Example 232, 1-(trans-5-(3-cyclopentylphenoxy)octahydrocyclopenta [c]pyrrole-2-carbonyl)-1H-pyrazole-3-carboxylic acid]"
> 75,> 75,–,"O=C(O)c1ccn(C(=O)N2C[C@H]3C[C@H](Oc4cccc(N5CCCC5)c4)C[C@H]3C2)n1 [Example 234, 1-(trans-5-(3-(pyrrolidin-1-yl)phenoxy)octa-hydrocyclopenta[c]pyrrole-2-carbonyl)-1H-pyrazole-3-carboxylic acid]"
> 75,> 75,–,"Cc1c(COC2CCN(C(=O)n3ccc(C(=O)O)n3)CC2)cccc1C(F)(F)F [Example 235, 1-(4-((2-methyl-3-(trifluoromethyl)benzyl)oxy)piper-idine-1-carbonyl)-1H-pyrazole-3-carboxylic acid]"
> 75,> 75,–,"Cc1ccc(COC2CCN(C(=O)n3ccc(C(=O)O)n3)CC2)cc1C(F)(F)F [Example 236, 1-(4-((4-methyl-3-(trifluoromethyl)benzyl)oxy)piper-idine-1-carbonyl)-1H-pyrazole-3-carboxylic acid]"
> 75,> 75,–,"O=C(O)c1ccn(C(=O)N2C[C@H]3C[C@H](Oc4ccccc4-c4ccccc4)C[C@H]3C2)n1 [Example 239, 1-(trans-5-([1,1′-biphenyl]-2-yloxy)octahydro-cyclopenta[c]pyrrole-2-carbonyl)-1H-pyrazole-3-carboxylic acid]"
> 75,> 75,–,"O=C(O)c1ccn(C(=O)N2C[C@H]3C[C@H](Oc4ccc(-c5ccccc5)cc4)C[C@H]3C2)n1 [Example 240, 1-(trans-5-([1,1′-biphenyl]-4-yloxy)octahydro-cyclopenta[c]pyrrole-2-carbonyl)-1H-pyrazole-3-carboxylic acid]"
> 75,> 75,–,"O=C(O)c1ccn(C(=O)N2C[C@H]3C[C@H](Oc4cccc(-c5ccccn5)c4)C[C@H]3C2)n1 [Example 242, 1-(trans-5-(3-(pyridin-2-yl)phenoxy)octa-hydrocyclopenta[c]pyrrole-2-carbonyl)-1H-pyrazole-3-carboxylic acid]"
> 75,> 75,–,"O=C(O)c1ccn(C(=O)N2C[C@H]3C[C@H](Oc4ccccc4-c4cccnc4)C[C@H]3C2)n1 [Example 244, 1-(trans-5-(2-(pyridin-3-yl)phenoxy)octa-hydrocyclopenta[c]pyrrole-2-carbonyl)-1H-pyrazole-3-carboxylic acid]"
> 75,> 75,0.1 to 1,"Cc1cc(-c2ccccc2)ccc1CN1CCN(C(=O)n2ccc(C(=O)O)n2)[C@@H](C)C1 [Example 246, (S)-1-(2-methyl-4-((3-methyl-[1,1′-biphenyl]-4-yl)methyl)piperazine-1-carbonyl)-1H-pyrazole-3-carboxylic acid]"
25 to 50,0 to 25,–,"O=C(O)c1ccn(C(=O)N2C[C@H]3C[C@H](Oc4cccc(-c5ccnnc5)c4)C[C@H]3C2)n1 [Example 248, 1-(trans-5-(3-(pyridazin-4-yl)phenoxy)octa-hydrocyclopenta[c]pyrrole-2-carbonyl)-1H-pyrazole-3-carboxylic acid]"
> 75,> 75,–,"C[C@@H]1CN(Cc2ccc(-c3ccccc3)cc2F)CCN1C(=O)n1ccc(C(=O)O)n1 [Example 253, (R)-1-(4-((3-fluoro-[1,1′-biphenyl]-4-yl)methyl)-2-methylpiperazine-1-carbonyl)-1H-pyrazole-3-carboxylic acid]"
> 75,> 75,–,"Cc1cc(O[C@H]2C[C@@H]3CN(C(=O)n4ccc(C(=O)O)n4)C[C@@H]3C2)ccc1C(F)(F)F [Example 254, 1-(trans-5-(3-methyl-4-(trifluoromethyl)phenoxy)octahydro-cyclopenta[c]pyrrole-2-carbonyl)-1H-pyrazole-3-carboxylic acid]"
> 75,> 75,0.1 to 1,"O=C(O)c1ccn(C(=O)N2C[C@H]3C[C@@H](OCc4cccc(C(F)(F)F)c4)C[C@H]3C2)n1 [Example 255, 1-(trans-5-((3-(trifluoromethyl)benzyl)oxy)octa-hydrocyclopenta[c]pyrrole-2-carbonyl)-1H-pyrazole-3-carboxylic acid]"
> 75,> 75,–,"CN(Cc1cccc(C(F)(F)F)c1)C1(C)CCN(C(=O)n2ccc(C(N)=O)n2)CC1 [Example 258, 1-(4-methyl-4-(methyl(3-(trifluoromethyl)benzyl)amino)piper-idine-1-carbonyl)-1H-pyrazole-3-carboxamide]"
> 75,> 75,–,"C[C@H]1C[C@H](N(C)Cc2cccc(C(F)(F)F)c2)CCN1C(=O)n1ccc(C(N)=O)n1 [Example 259, 1-((2S,4R)-2-methyl-4-(methyl(3-(trifluoromethyl)benzyl)amino)piperidine-1-carbonyl)-1H-pyrazole-3-carboxamide]"
> 75,> 75,–,"O=C(O)c1ccn(C(=O)N2C[C@H]3C[C@H](Oc4cccc(-c5nccs5)c4)C[C@H]3C2)n1 [Example 261, 1-(trans-5-(3-(thiazol-2-yl)phenoxy)octa-hydrocyclopenta[c]pyrrole-2-carbonyl)-1H-pyrazole-3-carboxylic acid]"
> 75,> 75,–,"O=C(O)c1ccn(C(=O)N2CCN(Cc3ccc(F)c(Oc4ccccc4)c3)CC2)n1 [Example 263, 1-(4-(4-fluoro-3-phenoxybenzyl)pi-perazine-1-carbonyl)-1H-pyrazole-3-carboxylic acid]"
> 75,> 75,–,"O=C(O)c1ccn(C(=O)N2CCN(Cc3cccc(Oc4ncccc4F)c3)CC2)n1 [Example 264, 1-(4-(3-((3-fluoropyridin-2-yl)oxy)benzyl)piper-azine-1-carbonyl)-1H-pyrazole-3-carboxylic acid]"
